# Results as given in patent US8080529B2, “Macrolides with anti-inflammatory activity” (Glaxo Group Limited, priority 2005, dated 2011).
# Like-named read-outs stand apart in the source and are kept apart here.
# Key:
# Hep G2 = assay: Cytotoxicity assay (MTT), Hep G2 cell line; format: cell-based; conditions: 24 h
# In short: (§1)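 Hep G2 and A549 cells were cultured 24 h at 37° C in RPM medium with test compounds at 50 μM and 12.5 μM. MTT was added for 0.5-2 h and formazan read at 490 nm. Growth value calculated as OD490 treated/OD490 nontreated ×100.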
# IL-1α = assay: Inhibition of IL-1 production by stimulated human peripheral blood leukocytes in vitro; format: cell-based; conditions: Homo sapiens, Leukocyte, read-out: Percentage of inhibition of IL-1α production
# TNF-α [1] = assay: Inhibition of TNF-α production by stimulated human peripheral blood leukocytes in vitro; format: cell-based; conditions: Homo sapiens, Leukocyte, read-out: Percentage of inhibition of TNF-α production
# In short: (§2)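 Sandwich ELISA of supernatant cytokines; % inhibition = (1 − sample/stimulated untreated control)×100. Dextran-isolated human PBL were pretreated 2 h with 10 or 50 μM compound, then challenged overnight with LPS (2 μg/mL), PMA (1 μg/mL) or zymosan (120 μg/mL).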
# granulocytes [2] = format: in vitro ADME; conditions: human, 180 min, 10 μM
# Experimental: (§3) Granulocytes were obtained from heparinized whole blood using density gradiant centrifugation. Erythrocytes were sedimented on 3% dextran T-500 (Amersham Pharmacia Biotech AB, Uppsala, Sweden). Leukocytes were centrifuged on Ficoll (Amersham Pharmacia Biotech AB, Uppsala, Sweden) for 35 min at 600 g at 20° C. The pellet of granulocytes was cleared from remaining erythrocytes by a brief hypotonic lysis.
# 7.5×10^6 granulocytes, isolated as described above, were suspended in 3 mL of RPMI 1640 (Institute of Immunology, Croatia) containing 10 μM of tested macrolide. Samples were incubated at 37° C. for 180 min. Following incubation, the samples were centrifuged through the layer of Poly(dimethylsiloxane-co-diphenylsiloxane), dihydroxy terminated-silicone oil (Aldrich Chemical Company, Milwaukee, USA). The pellet was resuspended in 0.5% Triton X-100 (Sigma, St. Louis, USA) in deionized water (MilliQ, Millipore Corporation, Bedford, USA). The suspension was sonicated, proteins were precipitated with acetonitrile, and the concentration of macrolide in the supernatants was determined by liquid chromatography-mass spectrometry (LC-MS).
# Intracellular concentrations of the test compounds were calculated from the mean cell number recovered after centrifuging through silicone oil. According to the literature, about 1 million neutrophils is considered to have a volume of 0.24 μL (Vazifeh et al., Antimicrob Agents Chemo. 1997; 41: 2099-2107). To estimate the extent of macrolide accumulation, the intracellular to extracellular concentration ratio (I/E) was calculated, where E (due to a large volume of incubation medium) was taken as constant (10 μM). Results are expressed relative to azithromycin according to the following equation: % of azithromycin uptake =(I/E of a substance/I/E of azithromycin)×100. I/E values obtained for azithromycin were 164±10.
# IL-6 = assay: Inhibition of IL-6 production by stimulated human peripheral blood leukocytes in vitro; format: cell-based; conditions: Homo sapiens, Leukocyte, read-out: Percentage of inhibition of IL-6 production
# In short: as §2
# A549 = assay: Cytotoxicity assay (MTT), A549 cell line; format: cell-based; conditions: 24 h
# In short: as §1
# IL-8 = assay: Inhibition of IL-8 production by stimulated human peripheral blood leukocytes in vitro; format: cell-based; conditions: Homo sapiens, Leukocyte, read-out: Percentage of inhibition of IL-8 production
# In short: as §2
# granulocytes [3] = assay: Inhibition of degranulation of granulocytes (free neutrophil elastase activity); format: cell-based, human; conditions: Homo sapiens, Neutrophil, compound 50 μM, read-out: Percentage of inhibition of degranulation of granulocytes
# Experimental: as §3
# 1×10^6 granulocytes, isolated as described above, were resuspended in RPMI-1640 medium (Institute of Immunology, Croatia), and were incubated with 10 or 50 μM of test compound together with cytochalasine B (5 μg/mL) for 2 h at 37° C. Degranulation then was induced by the addition of 0.1 μM fMLP (Sigma, USA) or 0.5 μM A23187 (Calbiochem, USA). The activity of free neutrophil elastase was determined with a chromogenic substrate specific for human neutrophil elastase, such as N-(methoxysuccinyl)-L-alanyl-L-alanyl-L-prolyl-L-valine 4-nitroanilide (Sigma Chemical Company, St Louis, Mo., USA). Elastase activity, as a marker of primary granules, was assessed in supernatant using a spectrophotometer at an absorbance of 405 nm.
# Results are expressed as the percent of inhibition of degranulation in unstimulated cells, and in stimulated cells treated with fMLP or A23187.
# TNF-α [4] = assay: Lipopolysaccharide induced TNF-α production in Balb/cJ mice; format: in vivo; conditions: Mus musculus, ip, 1.5 h; 10 mg/kg intraperitoneally, 30 min before LPS; 90 min after LPS; read-out: % inhibition of TNF-α production (plasma)
# Experimental: Male Balb/cJ mice (Iffa Credo, France) weighing 25-33 g were randomly grouped (n=7 in test group, 7 in positive control group, 4 in negative control group). Test compounds, as well as vehicle [0.125% carboxymethyl-cellulose (Sigma, USA)], were administered to the mice intraperitoneally. Test compounds were administered at a dose of 10 mg/kg of body weight, in a volume of 10 mL/kg of body weight. Thirty minutes later, a sterile solution of lipopolysaccharide (LPS) (Sigma, USA) in saline was intraperitoneally administered at a concentration and volume of 25 μg/0.2 mL/mouse to each animal, except those in negative control. Ninety minutes following administration, all animals were sacrificed by puncturing a. carotis communis. The plasma concentration of TNF-α was determined by sandwich ELISA, using capture and detection antibodies (R&D, USA) according to manufacturer's recommendations. Results are presented in the following table as percent of inhibition of TNF-α production in comparison to the positive control (stimulated, but untreated animals).
# [5] = test system: human peripheral blood mononuclear cells (PBMC); assay: Effects on human T-cell proliferation in vitro (3H-thymidine incorporation); format: cell-based; conditions: Homo sapiens, PBMC, read-out: Percentage of inhibition of proliferation of stimulated PBMC
# Experimental: The influence of the various test compounds at two different concentrations (50 μM and 10 μM) on cell proliferation of human peripheral blood mononuclear cells (PBMC) was assessed. […] The cells were pulsed with 1 μCi of ^3H-thymidine (Amersham, USA) per well during the last 18 h of the culture, and were harvested on the 96-well filter (Packard Bioscience, USA) using a multiple cell harvester (Packard, USA). The incorporation of ^3H-thymidine in activated cells were measured using TopCount NXT (Packard, USA). […] The positive control refers to LPS-, PMA- or zymosan-stimulated samples that were not treated with test compounds.
smiles,measurement,setting,value
"CC[C@H]1OC(=O)[C@H](C)[C@@H](O[C@H]2C[C@@](C)(OC)[C@@H](OCCCN)[C@H](C)O2)[C@H](C)[C@@H](O[C@@H]2O[C@H](C)C[C@H](N(C)C)[C@H]2O)[C@](C)(O)C[C@@H](C)CN(C)[C@H](C)[C@H]2OC(=O)O[C@@]21C [Example 51C, 11,12-Carbonate-11,12-dideoxy-4″-O-(3-aminopropyl)-azithromycin]",Percentage of inhibition of cell growth,Hep G2; 12.5 μM,15%
same,Percentage of inhibition of cell growth,Hep G2; 50 μM,7%
same,inhibition at 10 µM,IL-1α; LPS-stimulated PBL,2%
same,inhibition at 10 µM,IL-1α; PMA-stimulated PBL,0%
same,inhibition at 10 µM,IL-1α; zymosan-stimulated PBL,62%
same,inhibition at 50 µM,IL-1α; LPS-stimulated PBL,0%
same,inhibition at 50 µM,IL-1α; PMA-stimulated PBL,0%
same,inhibition at 50 µM,IL-1α; zymosan-stimulated PBL,0%
same,inhibition at 10 µM,TNF-α [1]; LPS-stimulated PBL,5%
same,inhibition at 10 µM,TNF-α [1]; PMA-stimulated PBL,18%
same,inhibition at 10 µM,TNF-α [1]; zymosan-stimulated PBL,38%
same,inhibition at 50 µM,TNF-α [1]; LPS-stimulated PBL,0%
same,inhibition at 50 µM,TNF-α [1]; PMA-stimulated PBL,4%
same,inhibition at 50 µM,TNF-α [1]; zymosan-stimulated PBL,0%
same,Uptake (% azithromycin),granulocytes [2],122 % azithromycin
same,inhibition at 10 µM,IL-6; LPS-stimulated PBL,4%
same,inhibition at 10 µM,IL-6; PMA-stimulated PBL,27%
same,inhibition at 10 µM,IL-6; zymosan-stimulated PBL,42%
same,inhibition at 50 µM,IL-6; LPS-stimulated PBL,0%
same,inhibition at 50 µM,IL-6; PMA-stimulated PBL,6%
same,inhibition at 50 µM,IL-6; zymosan-stimulated PBL,0%
same,Percentage of inhibition of cell growth,A549; 12.5 μM,0%
same,Percentage of inhibition of cell growth,A549; 50 μM,0%
same,inhibition at 10 µM,IL-8; LPS-stimulated PBL,0%
same,inhibition at 10 µM,IL-8; PMA-stimulated PBL,12%
same,inhibition at 10 µM,IL-8; zymosan-stimulated PBL,26%
same,inhibition at 50 µM,IL-8; LPS-stimulated PBL,0%
same,inhibition at 50 µM,IL-8; PMA-stimulated PBL,0%
same,inhibition at 50 µM,IL-8; zymosan-stimulated PBL,0%
"CC[C@H]1OC(=O)[C@H](C)[C@@H](O[C@H]2C[C@@](C)(OC)[C@@H](O)[C@H](C)O2)[C@H](C)[C@@H](O[C@@H]2O[C@H](C)C[C@H](N(C)C)[C@H]2O)[C@](C)(O)C[C@@H](C)C(=O)[C@H](C)[C@@H](O)[C@]1(C)O [erythromycin, reference compound]",inhibition at 50 µM,granulocytes [3]; A23187 0.5 μM,0%
same,inhibition at 50 µM,granulocytes [3]; fMLP 0.1 μM,23%
CC[C@H]1OC(=O)[C@H](C)[C@@H](O[C@H]2C[C@@](C)(OC)[C@@H](OC(=O)CCN3CCN(CCN(CC)CC)CC3)[C@H](C)O2)[C@H](C)[C@@H](O[C@@H]2O[C@H](C)C[C@H](N(C)C)[C@H]2O)[C@](C)(OC)C[C@@H](C)C(=O)N[C@H](C)[C@@H](O)[C@]1(C)O [Example 14],inhibition in vivo at 10 mg/kg,TNF-α [4],96%
same,Percentage of inhibition of cell growth,Hep G2; 12.5 μM,0%
same,Percentage of inhibition of cell growth,Hep G2; 50 μM,0%
same,inhibition at 10 µM,[5]; PHA,23%
same,inhibition at 50 µM,[5]; PHA,99%
same,inhibition at 10 µM,[5]; PMA + iono.,24%
same,inhibition at 50 µM,[5]; PMA + iono.,91%
same,Percentage of inhibition of cell growth,A549; 12.5 μM,4%
same,Percentage of inhibition of cell growth,A549; 50 μM,0%
"CC[C@H]1OC(=O)[C@H](C)[C@@H](O[C@H]2C[C@@](C)(OC)[C@@H](OC(=O)CCN(CC)CC)[C@H](C)O2)[C@H](C)[C@@H](O[C@@H]2O[C@H](C)C[C@H](N(C)C)[C@H]2O)[C@](C)(O)C[C@@H](C)NC(=O)[C@H](C)[C@@H](O)[C@]1(C)O [Example 2, 4″-O-(3-Diethylamino-propionyl)-8a-aza-8a-homoerythromycin A]",inhibition in vivo at 10 mg/kg,TNF-α [4],59%
same,Percentage of inhibition of cell growth,Hep G2; 12.5 μM,0%
same,Percentage of inhibition of cell growth,Hep G2; 50 μM,1%
same,inhibition at 10 µM,[5]; PHA,35%
same,inhibition at 50 µM,[5]; PHA,41%
same,inhibition at 10 µM,[5]; PMA + iono.,1%
same,inhibition at 50 µM,[5]; PMA + iono.,31%
same,Percentage of inhibition of cell growth,A549; 12.5 μM,0%
same,Percentage of inhibition of cell growth,A549; 50 μM,3%
